The results in this text go back to patent publication US20120264928A1, “THERAPEUTIC PHARMACEUTICAL AGENT FOR DISEASES ASSOCIATED WITH DECREASE IN FUNCTION OF GNE PROTEIN, FOOD COMPOSITION, AND FOOD ADDITIVE” (JAPAN HEALTH SCIENCES FOUNDATION, priority 2009, published 2012).

Each structure is given as a SMILES string.

The test system of assay [1] is primary cultured cells of myotubes derived from the DMRV human patients. Kind of assay: Amount of NeuAc by HPLC in myotubes from DMRV human patients. The format is cell-based. To be noted: three days, N=3. The source says:
DMRV human patients are adult patients that have been diagnosed with DMRV by means of GNE gene mutation screening. (Number of patients: 42, the age of the onset of the disease: 20 to 30, sex: male and female) In accordance with a protocol approved by National Center of Neurology and Psychiatry, after obtaining informed consent, skeletal muscles (biceps brachii muscles and anterior tibial muscles) were collected from these patient volunteers under local anesthesia by means of biopsy.
The skeletal muscle tissues collected from the DMRV human patients or the model mice were lightly washed with PBS or Hank's balanced saline and were treated with 0.25% trypsin for 5 minutes. The tissues were finely cut into several millimeters with ophthalmic scissors, were digested with 0.4% collagenase II/0.25% trypsin at 37° C. for 30 minutes, and were left still to collect supernatant. The precipitate was again treated with the enzyme liquid. After being left still, the precipitate was well suspended in a DMEM-Ham's F-12 culture medium. The tissue suspension was passed through a nylon mesh to remove the tissues. The washings and the supernatant were centrifuged to collect cells. The cells thus collected were plated on a DMEM-Ham's F-12 culture medium at a cell density of 10^6 in a 100-mm plastic dish and were cultured at 37° C. in 5% CO2 for 4 to 7 days.
In the case that the sample was cultured cells, the cells were washed with PBS three times, and 400 p. 1 of 50 mM sulfuric acid was added to the cells. The cells were incubated at 80° C. for 60 minutes and were hydrolyzed to release NeuAc and NeuGc. In the case that the sample was a piece of tissue, the tissue was frozen, was pulverized with an air hammer, and was homogenized in a KCl-tris solution. […] The fluorescent derivative thus prepared was analyzed with HPLC (JASCO Corp.) using 0.05 to 5 nmol/μl Neu5Ac and Neu5Gc standards. The amount of protein from the tissue was measured with a Bio-Rad Protein Assay kit (Bio-Rad Laboratories).
[…] The amount of NeuAc in the cultured cells was measured by the HPLC method described above (N=3).

The test system of assay [2] is DMRV model mice. Kind of assay: Survival rate of treated DMRV model mice. It is filed as in vivo. The conditions noted are these: vs placebo group. On the procedure:
DMRV model mice were GNE^(−/−)hGNED176V-Tg described in Japanese Unexamined Patent Application Publication No. 2007-312641. Healthy litters having no GNE gene mutation were used as controls. The mice in the present example freely take water and feed and ingest 14 mg/kg body weight/day of N-acetylneuraminic acid compound on average.
(§1) 20 mg/kg body weight/day of ManNAc (N=6), NeuAc (N=5), or sialyllactose (N=7) dissolved in drinking water was administered to the DMRV model mice between 11- to 15-week old and 56- to 58-week old for 43 to 45 weeks. 40 mg (N=5) or 400 mg/kg body weight/day (N=4) of Ac4ManNAc dissolved in drinking water was administered to the DMRV model mice of the same ages for 43 to 47 weeks. Drinking water free of the pharmaceutical agents was supplied to mice in a placebo group.
(§2) During the administration of the pharmaceutical agent, the measurement of the body weight, the determination of the survival rate, blood collection (0, 25, and 49 days after the start of administration, and thereafter at intervals of 28 days), and a hanging test (0 and 49 days after the start of administration, and thereafter at intervals of 56 days) were performed at regular intervals. Survivors after the administration (ManNAc-treated group: N=5, NeuAc-treated group: N=5, sialyllactose group: N=6) were subjected to a treadmill test. A muscle tissue was then excised and was subjected to a muscle contraction test, the measurement of the amount of NeuAc, and pathological observation.

The test system of assay [3] is DMRV model mice. Kind of assay: Treadmill test, motor ability test. The format is in vivo. To be noted: vs placebo group. How it is done: as §1, §2
(§3) In order to familiarize a mouse with the apparatus, training was started one week prior to testing. In this period, the mouse was made to run on a slope of 7 degrees at a velocity in the range of 5 to 15 m/min for 30 minutes every day for 7 days. As a motor ability test, the velocity was increased by 10 m/min per minute from the initial velocity of 20 m/min. The accumulated running distance up to the point where the mouse could not run anymore was measured. As an endurance test, a mouse was made to run on a slope of 7 degrees at a velocity of 20 m/min for 60 minutes. The mouse was then made to run for another 3 minutes, during which the times of the electrical stimulation given to the mouse by a stimulation grid disposed at the end of the running lane were measured.

In assay [4] the test system is DMRV model mice. Kind of assay: Treadmill test, endurance test. The format is in vivo. The conditions noted are these: vs placebo group. On the procedure: as §1, §2, §3
Assay [5] has as its system DMRV model mice. Kind of assay: Hanging test. It is filed as in vivo. The conditions noted are these: 20 mg/kg body weight/day in drinking water; vs placebo group. On the procedure:
as §1, §2
A wire net having a 6-mm lattice pattern made of wires having a diameter of approximately 0.5 mm was placed on a tube having a height of 50 cm. A mouse was made to hang on the wire net, and the time elapsed before the mouse fell down was measured. The time was measured three times for each mouse.

Where [6] appears, read: final concentration 0.005, 0.05, 0.5 or 5 mM.
Where [7] appears, read: 20 mg/kg body weight/day in drinking water, 43 to 45 weeks.
The mark [8] stands for this setting: 20 mg/kg body weight/day in drinking water.

Consider `CC(=O)N[C@@H]1C(OC(C)=O)O[C@H](COC(C)=O)[C@@H](OC(C)=O)[C@@H]1OC(C)=O` (stereo partly shown) [Ac4ManNAc, Tetra-O-acetyl-N-acetylmannosamine], for which the “amount of NeuAc in the cells” value in assay [1] (final concentration 0.0002, 0.002, 0.02 or 0.2 mM) is on record as “effective in increasing the amount of NeuAc at low concentrations in a manner that depended on its dose”. Moreover, in the assay on DMRV model mice [2] (40 or 400 mg/kg body weight/day in drinking water, 43 to 47 weeks), the survival rate entry is on record as “higher”. Besides, the accumulated running distance result in the assay with DMRV model mice [3] (400 mg/kg) is reported as “significantly higher”. Besides, the “times of electrical stimulation for 3 minutes” value (from here on “times of electrical stimulation”) in the assay on DMRV model mice [4] (40 mg/kg) and with DMRV model mice [4] (400 mg/kg) was “significantly lower” in each case.

Regarding `CC(=O)N[C@@H]1C(O)O[C@H](CO)[C@@H](O)[C@@H]1O` (stereo partly shown) [ManNAc, N-acetylmannosamine, reference compound], the “amount of NeuAc in the cells” value in assay [1] (setting [6]) is given as “effective in increasing the amount of NeuAc in the cells in a manner that depended on their doses”. In the assay with DMRV model mice [2] (setting [7]), the survival rate entry was “significantly higher”. In addition, the accumulated running distance entry with DMRV model mice [3] (setting [8]) was “significantly higher”. For the same compound, the hanging time result with DMRV model mice [5] is reported as “longer”. The “times of electrical stimulation” value in the assay on DMRV model mice [4] (setting [8]) is recorded as “significantly lower”.

`CC(=O)N[C@H]1[C@H]([C@H](O)[C@H](O)CO)OC(O)(C(=O)O)C[C@@H]1O` (stereo partly shown) [NeuAc, N-acetylneuraminic acid]: the “amount of NeuAc in the cells” value in assay [1] (setting [6]) was “effective in increasing the amount of NeuAc in the cells in a manner that depended on their doses”. The survival rate result in the assay on DMRV model mice [2] (setting [7]) was “significantly higher”. Moreover, the accumulated running distance entry in the assay on DMRV model mice [3] (setting [8]) is “significantly higher”. Moreover, the hanging time entry in the assay on DMRV model mice [5] is “longer”. The “times of electrical stimulation” value in the assay with DMRV model mice [4] (setting [8]) is “significantly lower”.

Turning to `CC(=O)N[C@H]1[C@H]([C@H](O)[C@H](O)CO)O[C@@](O[C@H]2[C@@H](O)[C@@H](CO)O[C@@H](O[C@H]3[C@H](O)[C@@H](O)C(O)O[C@@H]3CO)[C@@H]2O)(C(=O)O)C[C@@H]1O` (stereo partly shown) [sialyllactose, NeuAcα2-3Galβ1-4Glc], the survival rate entry in the assay on DMRV model mice [2] (setting [7]) is listed as “significantly higher”. Moreover, the accumulated running distance result with DMRV model mice [3] (setting [8]) is on record as “significantly higher”. The hanging time result in the assay with DMRV model mice [5] is “longer”. Also, in the assay with DMRV model mice [4] (setting [8]), the “times of electrical stimulation” value was “significantly lower”.
